Key:
biofilm = test: Biofilm coupon test with modified Robbins device (ATP, RLU); assay type: cell-based, bacteria; conditions: water upstream of and near the RO membrane; average of 3 or 4 coupons
Procedure: (§1) Marsh water was fed into a storage tank via a 1200-foot long (365 m) hose. A biocide was added to the hose at a point 20 feet (6.1 m) before the hose connection to the storage tank. Water was fed from the storage tank to a reverse osmosis (RO) system equipped with an ultrafiltration (UF) membrane upstream of an RO membrane. In this system, the UF membrane was a non-protected membrane and the RO membrane was a protected membrane. An oxidation-reduction potential (ORP) electrode was in the water at a point upstream of and near the RO membrane, and the ORP electrode was connected to an ORP controller unit (ORP electrode: RD2, Hach Company). Measurements from the ORP were monitored, and the reducing agent was pumped into the RO system downstream of the ORP electrode as needed as indicated by the ORP reading from the ORP electrode. […]
(§2) The water was sampled at various times upstream of and near the UF membrane, and the water was also sampled at various times upstream of and near the RO membrane. […] Functionality of the RO membrane, types of microbes at RO membrane after treatment, biocide efficacy on microbes in water, and biocide efficacy for biofilm growth were determined. […]

microbes in water = test: Biocide efficacy on microbes in water (planktonic biocidal reduction, marsh water); assay type: cell-based
Procedure: Marsh water was fed into a storage tank via a 1200-foot long (365 m) hose. A biocide was added to the hose at a point 20 feet (6.1 m) before the hose connection to the storage tank. Water was fed from the storage tank to a reverse osmosis (RO) system equipped with an ultrafiltration (UF) membrane upstream of an RO membrane. In this system, the UF membrane was a non-protected membrane and the RO membrane was a protected membrane. An oxidation-reduction potential (ORP) electrode was in the water at a point upstream of and near the RO membrane, and the ORP electrode was connected to an ORP controller unit (ORP electrode: RD2, Hach Company). Measurements from the ORP were monitored, and the reducing agent was pumped into the RO system downstream of the ORP electrode as needed as indicated by the ORP reading from the ORP electrode.
The biocides tested were bleach, 1,3-dibromo-5,5-dimethylhydantoin (Br2DMH; Albemarle Corporation), and an aqueous solution formed from bromine chloride and sulfamic acid containing over 50,000 ppm of active halogen having a pH in the range of 13 to 14 (BrCl/sulfamic acid; STABROM® 909 biocide, Albemarle Corporation). The reducing agent used with each biocide was […].
The water was sampled at various times upstream of and near the UF membrane, and the water was also sampled at various times upstream of and near the RO membrane. The duration of testing for each biocide was approximately 30 days. Functionality of the RO membrane, types of microbes at RO membrane after treatment, biocide efficacy on microbes in water, and biocide efficacy for biofilm growth were determined.
For the data in Table 3, the water was sampled upstream of and near the UF membrane, and upstream of and near the RO membrane The data in Table 3 are an average of samples from several days for planktonic biocidal reduction.

Aerobic bacteria = test: Types of microbes at RO membrane after treatment (membrane autopsy): aerobic bacteria; assay type: cell-based; conditions: on RO membrane after 30 days of exposure to the biocide
Procedure: as §1, §2

Yeast/mold = test: Types of microbes at RO membrane after treatment (membrane autopsy): yeast/mold; assay type: cell-based; conditions: on RO membrane after 30 days of exposure to the biocide
Procedure: as §1, §2

[1] = untreated water to RO feed water

`CC1(C)C(=O)N(Br)C(=O)N1Br` [Br2DMH, 1,3-dibromo-5,5-dimethylhydantoin] was tested, and the “ATP on Polyamide coupon” value (biofilm) was 5825 RLU, the “Log reduction, total (untreated to RO)” value (microbes in water; [1]) was 2.1 and the “Reduction, total (untreated to RO)” value (microbes in water; [1]) was 99.2%. The RO feed water (microbes in water; water sampled upstream of and near the RO membrane, average of samples from several days) was 2.2 log cfu/mL, the UF feed water (microbes in water; water sampled upstream of and near the UF membrane, average of samples from several days) was 3.1 log cfu/mL and the Aerobic bacteria rating (Aerobic bacteria) was “High (10,000 to 1,000,000)”. For the same molecule, the Yeast/mold rating (Yeast/mold) was “Low (0 to 100)”.

Reference: US20260167541A1, “BIOCIDAL CONTROL IN AQUEOUS MEMBRANE SEPARATION SYSTEMS” (Albemarle Corporation, priority 2023, published 2026)
